Data on six compounds can be found in article PMC9148066, “The Medicinal Halophyte Frankenia laevis L. (Sea Heath) Has In Vitro Antioxidant Activity, α-Glucosidase Inhibition, and Cytotoxicity towards Hepatocarcinoma Cells” (Plants, 2022).

Marks after values point to notes of the source that are not given here.

One data set can be described thus: RSA on DPPH radical. The settings on record: DPPH 120 µM, 30 min. The protocol: (§1) The absorbance was measured in a microplate reader (Biotek Synergy 4), and the activity was calculated as a percentage of inhibition, relative to a control containing DMSO in place of the sample.
(§2) The extracts were tested on DPPH and ABTS, as described elsewhere. The samples were mixed with radical solutions (DPPH: 120 µM; ABTS: 7.4 mM) in 96-well flat-bottom microtitration plates and were incubated in darkness at RT for 30 and 6 min, respectively. The synthetic antioxidant BHT (E320), used as a preservative in food and cosmetics, was used as a positive control at the same concentrations of the samples. The absorbance was measured at 517 and 734 nm for DPPH and ABTS, respectively.

A short description of the next data set: RSA on ABTS radical. The following applies: ABTS 7.4 mM, 6 min. The protocol: as §1, §2
Data set [1] relates to human lung carcinoma cells (A549). More on the design: method as in PMID 19471192. The following applies: cited from earlier work.
Data set [2] in a line: Copper chelating activity (CCA). The following applies: pyrocatechol violet, CuSO4.
Procedure: (§5) The CCA and ICA of the extracts and the positive control (EDTA) were assessed in 96-well microplates according to the methods described in Rodrigues et al. [53]. For CCA, the samples were mixed with 50 mM Na acetate buffer (pH 6), 4 mM pyrocatechol violet, and 50 µg/mL CuSO4 solution. For ICA, the samples were mixed with distilled water and 0.1 mg/mL FeCl2 solution. After 30 min, a 40 mM ferrozine solution was added. The change in absorbance was measured at 632 and 562 nm for CCA and ICA, correspondingly.
Data set [3] can be described thus: Iron chelating activity (ICA). The settings on record: FeCl2, ferrozine.
Procedure: as §5
For another data set, the target named is α-glucosidase. More on the design: method as in doi:10.1016/j.sajb.2020.01.011. The following applies: cited from earlier work.
Data set [4] has as its system HepG2 cells. The following applies: cited from earlier work.
Data set [5] deals with HepG2 cells. The data set is described as follows: Cellular viability assay (MTT), HepG2. The following applies: Homo sapiens, 72 h, read-out: HepG2 cytotoxic activity EC50. The class given is cell-based. The protocol:
(§3) The HepG2 (human hepatocellular carcinoma) and S17 (murine bone marrow stromal) cell lines were maintained in Dulbecco’s modified eagle medium (DMEM) culture medium supplemented with 10% heat-inactivated fetal bovine serum (FBS), 1% L-glutamine (2 mM), and 1% penicillin (50 U/mL)/streptomycin (50 μg/mL) and were maintained at 37 °C in humidified atmosphere with 5% CO2.
(§4) HepG2 and S17 cells were plated in 96-well tissue plates at a density of 5 × 10^3 cells/well and were incubated for 24 h. Then, the extracts were applied at several concentrations (3.125, 6.25, 12.5, 25, 50 and 100 µg/mL) for 72 h. The 3-(4,5-dimethylthiazol-2-yl)-2,5-diphenyltetrazolium bromide (MTT) colorimetric test was used to determine the cellular viability (Biotek Synergy 4), as formerly detailed. […] The selectivity index (SI) was obtained by dividing the EC50 value of non-tumoral cells (S17) by the EC50 of tumoral cells (HepG2).

Data set [6] in a line: Cellular viability assay (MTT), S17. The class given is cell-based. The following applies: mouse, S17 bone marrow stromal cells (non-tumoral), read-out: S17 cytotoxic activity EC50. The protocol: as §3, §4

As for `Cc1cc(C(C)(C)C)c(O)c(C(C)(C)C)c1` [BHT, butylated hydroxytoluene], in “RSA on DPPH radical”, the “RSA-DPPH EC50” value is on record as 0.11 ± 0.00 ^a mg/mL. The “RSA-ABTS EC50” value in the data set “RSA on ABTS radical” is 0.06 ± 0.00 ^a mg/mL. As for `CC1(C)CCCC2(C)OC(=O)C=C12` (centres unmarked) [Dihydroactinidiolide], the “Cytotoxic effect on A549” value in [1] is listed as “strong cytotoxic effect”. `O=C(O)CN(CCN(CC(=O)O)CC(=O)O)CC(=O)O` [EDTA, ethylenediamine tetraacetic acid]: the “CCA EC50” value in [2] is 0.17 ± 0.00 ^a mg/mL. Moreover, in [3], the “ICA EC50” value was 0.06 ± 0.00 ^a mg/mL. On to `CC1(C)C[C@H](O)C[C@@]2(C)OC(=O)C=C12` [Loliolide], for which the “α-glucosidase EC50” value at α-glucosidase (approx. equivalent of the µM value) is “approx. 76 µg/mL”. Besides, the 50% effective concentration (EC50) at α-glucosidase is 388 µM. Moreover, the “Cytotoxicity against HepG2 cells” value in the data set on HepG2 cells [4] is given as “selective cytotoxicity”. `COc1cc([C@@H]2c3cc4c(cc3[C@@H](O[C@@H]3O[C@@H]5CO[C@@H](C)O[C@H]5[C@H](O)[C@H]3O)[C@H]3COC(=O)[C@H]23)OCO4)cc(OC)c1O` [etoposide]: in the data set on HepG2 cells [5], the concentration giving a half-maximal response (EC50) was found to be 1.45 ± 0.15 µg/mL. Besides, the EC50 at 72 h in data set [6] is 7.86 ± 0.25 µg/mL. `CC1(C)C[C@H](O)C[C@]2(C)OC(=O)C=C12` [isololiolide, Isololiolide]: the “Cytotoxicity against HepG2 cells” value with HepG2 cells [4] is given as “selective cytotoxicity”.
